# In patent US12636366B2, “Ruthenium (II) complexes and conjugates thereof for use as photosensitizer agent in photodynamic therapy” (Paris Sciences et Lettres, priority 2019, dated 2026):
# Key:
# Cys-34 residue of HSA = Cys-34 residue of HSA (Homo sapiens, UniProt P02768)
# Description: UV-visible (UV-Vis) spectrophotometry was monitored on an Agilent Cary 8454 diode array spectrophotometer in the wavelength range between 190 and 1100 nm.
# Interaction of complex 12 at the Cys-34 residue of HSA was investigated spectrophotometrically via the dithiodipyridine (DTDP) method described previously (Pichler et al., 2013). […] A first series of UV-Vis spectra (a) were recorded before addition of 110 μM DTDP and a second series of UV-Vis spectra (b) were recorded after addition of 110 μM DTDP and after another 40 min waiting. […] Blank experiment with compound 13 was carried out as well as a control experiment. The effect of protein unfolding on the thiol binding of complex 12 was studied by the addition of 0.5% (m/m) SDS to the protein prior to its reaction with the complex. This experiment allows to determine the amount of free Cys-34 residue of HSA as a function of the added equivalent of the complexes.
# [1] = cited from earlier work
# Sequence of Cys-34 residue of HSA (P02768 25-609): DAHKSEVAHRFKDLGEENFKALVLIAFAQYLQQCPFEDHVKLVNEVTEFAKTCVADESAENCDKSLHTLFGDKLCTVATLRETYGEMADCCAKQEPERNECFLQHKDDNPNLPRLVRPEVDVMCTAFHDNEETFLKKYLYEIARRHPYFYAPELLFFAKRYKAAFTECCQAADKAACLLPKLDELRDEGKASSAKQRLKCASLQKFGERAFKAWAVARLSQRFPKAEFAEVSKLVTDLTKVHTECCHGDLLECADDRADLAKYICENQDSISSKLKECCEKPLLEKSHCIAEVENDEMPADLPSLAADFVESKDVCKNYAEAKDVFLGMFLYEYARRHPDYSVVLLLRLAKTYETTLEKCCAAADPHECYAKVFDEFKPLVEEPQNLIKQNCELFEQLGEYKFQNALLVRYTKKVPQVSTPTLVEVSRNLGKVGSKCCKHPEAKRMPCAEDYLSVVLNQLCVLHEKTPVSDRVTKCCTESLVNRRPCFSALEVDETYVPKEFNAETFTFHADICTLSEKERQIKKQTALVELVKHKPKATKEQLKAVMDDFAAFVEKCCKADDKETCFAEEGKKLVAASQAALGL
compound,measurement,setting,value
[Ru(bphen)2(Me-maleimidemethyl)](Cl)2 [Compound 12],Interaction with Cys-34 thiol group of unfolded HSA,"Cys-34 residue of HSA; 0.5% SDS as denaturing agent, 0.5 h incubation",nearly quantitative interaction
same,Effect of incubation time on Cys-34 interaction,Cys-34 residue of HSA; 3 h versus 30 min incubation with HSA,did not result in remarkable differences
[Cl-].[Cl-].[Ru+2].c1ccc(-c2ccccn2)nc1.c1ccc(-c2ccccn2)nc1.c1ccc(-c2ccccn2)nc1 [[Ru(bipy)3]Cl2],Φ(1O2) of reference in D2O / water,[1]; solution in D2O / water,0.22
O=C1C=Cc2cccc3cccc1c23 [phenalenone],Φ(1O2) of reference in CH3CN,[1]; solution in CH3CN,0.95
"Cc1ccnc(-c2cc(C)ccn2)c1.[Cl-].[Cl-].[Ru+2].c1ccc(-c2ccnc3c2ccc2c(-c4ccccc4)ccnc23)cc1.c1ccc(-c2ccnc3c2ccc2c(-c4ccccc4)ccnc23)cc1 [Compound 13, (4,4′-Dimethyl-2,2′-bipyridine)bis(4,7-diphenyl-1,10-phenanthroline)ruthenium(II) dichlorine]",Interaction with Cys-34 thiol group (free thiol content) of native HSA,"Cys-34 residue of HSA; 133 μM HSA, 0-120 μM complex, 3 h or 30 min, pH=7.00 (PBS)",affects barely the quantity of free thiol groups
